Patent publication US12606533B2, “3-phenylpropylamine derivative” (DAIICHI SANKYO COMPANY, LIMITED, priority 2023, dated 2026)
Read-outs that look alike come from different tables or passages of the source.

Assays:
NCI-H295R cells = assay: Proliferation inhibitory action on NCI-H295R (CellTiter-Glo, 7 days); type: cell-based, human
Method: DMSO solutions of each compound were serially diluted with DMSO using a D300e Digital Dispenser (TECAN), and added to a 384-well plate (Thermo Fisher Scientific Inc.). NCI-H295R cells were seeded in a 384-well plate at 2×10^3 cells/40 μL/well and cultured for 7 days in a 37° C., 5% CO2 incubator. […] On the first day of culture (day 0) and the seventh day of culture (day 7), 10 μL/well of CellTiter-Glo (registered trademark) 2.0 Assay (Promega) was added, and the luminescence signal was detected using a multimode plate reader (EnVision, PerkinElmer). The cell proliferation rate was calculated from the luminescence amount on the day of compound addition (CO), the luminescence amount of the compound-free group after 7 days of culture (C7), and the luminescence amount of the compound-added group (T7), based on the following formula.

SF-1 = target: T1, SF-1 (Homo sapiens, UniProt Q13285); assay: SF1 degradation induction in NCI-H295R SF-1-HiBiT cells (HiBiT DC50); type: cell-based; settings: 24 hr, concentration that induces 50% degradation of SF-1
T1 construct: NCI-H295R SF-1-HiBiT cells with HiBiT tag knocked in at the endogenous SF1 locus; host or cells: NCI-H295R SF-1-HiBiT (knock-in at endogenous locus)
Method: NCI-H295R SF-1-HiBiT cells were seeded in a 384-well plate (Thermo Fisher Scientific Inc.) at 1×10^4 cells/50 μL/well and cultured at 37° C. in a 5% CO2 incubator for 24 hr. DMSO solutions of each compound were serially diluted with DMSO using a D300e Digital Dispenser (TECAN), added to a 384-well plate, and cultured in a 5% CO2 incubator at 37° C. for 24 hr. […] After completion of culture, the medium was discarded, and Nano-Glo (registered trade mark) HiBiT Lytic Detection System (Promega, Cat. No. N3040) was added at 20 μL/well and stirred with a plate mixer. Luminescence signals were then detected using a multimode plate reader (EnVision Xcite, PerkinElmer). The SF-1 protein degradation rate was calculated from the amount of luminescence (C) in the compound-free group and the amount of luminescence (T) in the compound-added group, based on the following formula.
The obtained data was analyzed using GraphPad Prism9 (GraphPad Software Inc.) or Genedata Screener (Genedata AG) to calculate the concentration that induces 50% degradation of SF-1 (DC50 value).

Row | GI50 (NCI-H295R cells; Homo sapiens, NCI-H295R, 168 h) [nM] | DC50 (SF-1) [nM] | SMILES | GI50 (NCI-H295R cells) [nM]
1 | 22 | 2.2 | COc1ccc([C@]2(CCN(Cc3ccc(C4=CC[C@H](C(=O)N5CCC(Nc6ccc7c8c6OCCn8c(=O)n7C6CCC(=O)NC6=O)CC5)CC4)c(F)c3)CC(C)(C)C(F)(F)F)CCOC(C)(C)C2)cc1 (stereo partly drawn) [BM10, 3-{7-[(1-{[(4R)-2′-Fluoro-4′-{[{2-[(4R)-4-(4-methoxyphenyl)-2,2-dimethyltetrahydro-2H-pyran-4-yl]ethyl)(3,3,3-trifluoro-2,2-dimethylpropyl)amino]methyl}-2,3,4,5-tetrahydro[biphenyl]-4-yl]carbonyl}piperidin-4-yl)amino]-2-oxo-4,5-dihydroimidazo[1,5,4-de][1,4]benzoxazin-1(2H)-yl}piperidine-2,6-dione] | –
2 | 45 | 7.7 | COc1ccc([C@]2(CCN(Cc3ccc(C4=CCC(C(=O)N5CCN(Cc6ccc7c(c6)n(C)c(=O)n7C6CCC(=O)NC6=O)CC5)CC4)cc3F)CC(C)(C)C(F)(F)F)CCOC(C)(C)C2)cc1 (stereo partly drawn) [AT3, 3-[5-({4-[(3′-Fluoro-4′-{[{2-[(4R)-4-(4-methoxyphenyl)-2,2-dimethyltetrahydro-2H-pyran-4-yl]ethyl}(3,3,3-trifluoro-2,2-dimethylpropyl)amino]methyl}-2,3,4,5-tetrahydro[biphenyl]-4-yl)carbonyl]piperazin-1-yl}methyl)-3-methyl-2-oxo-2,3-dihydro-1H-benzimidazol-1-yl]piperidine-2,6-dione] | –
3 | 123 | 5.7 | COc1ccc([C@]2(CCN(Cc3ccc(C4=CCC(CN5CCN(C(=O)c6cccc7c6n(C)c(=O)n7C6CCC(=O)NC6=O)CC5)CC4)cc3)CC(C)(C)C(F)(F)F)CCOC(C)(C)C2)cc1 (stereo partly drawn) [Example AH4, 3-[4-({4-[(4′-{[{2-[(4R)-4-(4-Methoxyphenyl)-2,2-dimethyltetrahydro-2H-pyran-4-yl]ethyl}(3,3,3-trifluoro-2,2-dimethylpropyl)amino]methyl}-2,3,4,5-tetrahydro[biphenyl]-4-yl)methyl]piperazin-1-yl}carbonyl)-3-methyl-2-oxo-2,3-dihydro-1H-benzimidazol-1-yl]piperidine-2,6-dione] | –
4 | 48 | 5.5 | COc1ccc([C@]2(CCN(CC(C)(C)C(F)(F)F)C[C@H]3CC[C@H](c4ccc(NC(=O)N5CCC(Nc6ccc7c(c6)n(C)c(=O)n7C6CCC(=O)NC6=O)CC5)cc4)CC3)CCOC(C)(C)C2)cc1 (stereo partly drawn) [CA1, 4-{[1-(2,6-Dioxopiperidin-3-yl)-3-methyl-2-oxo-2,3-dihydro-1H-benzimidazol-5-yl]amino}-N-[4-(trans-4-{[{2-[(4R)-4-(4-methoxyphenyl)-2,2-dimethyltetrahydro-2H-pyran-4-yl]ethyl) (3,3,3-trifluoro-2,2-dimethylpropyl)amino]methyl}cyclohexyl)phenyl]piperidine-1-carboxamide] | –
5 | 40 | 8.5 | COc1ccc([C@]2(CCN(Cc3ccc(OC4CC5(CCN(CC(=O)Nc6ccc7c(c6)n(C)c(=O)n7C6CCC(=O)NC6=O)CC5)C4)cc3)CC(C)(C)C(F)(F)F)CCOC(C)(C)C2)cc1 (stereo partly drawn) [Example AE1, N-[1-(2,6-Dioxopiperidin-3-yl)-3-methyl-2-oxo-2,3-dihydro-1H-benzimidazol-5-yl]-2-[2-(4-{[{2-[(4R)-4-(4-methoxyphenyl)-2,2-dimethyltetrahydro-2H-pyran-4-yl]ethyl}(3,3,3-trifluoro-2,2-dimethylpropyl)amino]methyl}phenoxy)-7-azaspiro[3.5]nonan-7-yl]acetamide] | –
6 | 84 | 9.2 | COc1ccc([C@]2(CCN(Cc3ccc(C4=CC[C@H](CN5CCN(C(=O)c6ccc7c8c6CCCn8c(=O)n7[C@@H]6CCC(=O)NC6=O)CC5)CC4)cc3)CC(C)(C)C(F)(F)F)CCOC(C)(C)C2)cc1 [BG5, (3R)-3-{7-[(4-{[(4R)-4′-{[{2-[(4R)-4-(4-Methoxyphenyl)-2,2-dimethyltetrahydro-2H-pyran-4-yl]ethyl}(3,3,3-trifluoro-2,2-dimethylpropyl)amino]methyl}-2,3,4,5-tetrahydro[biphenyl]-4-yl]methyl}piperazin-1-yl)carbonyl]-2-oxo-5,6-dihydro-4H-imidazo[4,5,1-ij]quinolin-1(2H)-yl}piperidine-2,6-dione] | –
7 | 86 | 9.1 | COc1ccc([C@]2(CCN(Cc3ccc(C4=CC[C@H](C(=O)N5CC(Nc6ccc7c8c6CCCn8c(=O)n7C6CCC(=O)NC6=O)C5)CC4)c(F)c3)CC(C)(C)C(F)(F)F)CCOC(C)(C)C2)cc1 (stereo partly drawn) [BW3, 3-{7-[(1-{[(4R)-2′-Fluoro-4′-{[{2-[(4R)-4-(4-methoxyphenyl)-2,2-dimethyltetrahydro-2H-pyran-4-yl]ethyl}(3,3,3-trifluoro-2,2-dimethylpropyl)amino]methyl}-2,3,4,5-tetrahydro[biphenyl]-4-yl]carbonyl}azetidin-3-yl)amino]-2-oxo-5,6-dihydro-4H-imidazo[4,5,1-ij]quinolin-1(2H)-yl}piperidine-2,6-dione] | –
8 | 28 | 7 | COc1ccc([C@]2(CCN(Cc3ccc4nn(C5CC6(CCN(CC(=O)Nc7ccc8c(c7)n(C)c(=O)n8C7CCC(=O)NC7=O)CC6)C5)cc4c3)CC(C)(C)C(F)(F)F)CCOC(C)(C)C2)cc1 (stereo partly drawn) [AZ8, N-[1-(2,6-Dioxopiperidin-3-yl)-3-methyl-2-oxo-2,3-dihydro-1H-benzimidazol-5-yl]-2-[2-(5-{[{2-[(4R)-4-(4-methoxyphenyl)-2,2-dimethyltetrahydro-2H-pyran-4-yl]ethyl}(3,3,3-trifluoro-2,2-dimethylpropyl)amino]methyl}-2H-indazol-2-yl)-7-azaspiro[3.5]nonan-7-yl]acetamide] | –
9 | 90 | 6.2 | COc1ccc([C@]2(CCN(Cc3ccc([C@H]4CC[C@@H](CN5CCN(C(=O)c6ccc7c(c6)n(C)c(=O)n7C6CCC(=O)NC6=O)CC5)CC4)cc3)CC(C)(C)C(F)(F)F)CCOC(C)(C)C2)cc1 (stereo partly drawn) [Example AI11, 3-{5-[(4-{[Cis-4-(4-{[{2-[(4R)-4-(4-methoxyphenyl)-2,2-dimethyltetrahydro-2H-pyran-4-yl]ethyl}(3,3,3-trifluoro-2,2-dimethylpropyl)amino]methyl}phenyl)cyclohexyl]methyl}piperazin-1-yl)carbonyl]-3-methyl-2-oxo-2,3-dihydro-1H-benzimidazol-1-yl}piperidine-2,6-dione] | –
10 | 61 | 7.1 | COc1ccc([C@]2(CCN(Cc3ccc(C4=CCC(CN5CCN(Cc6ccc7c(c6)n(C)c(=O)n7C6CCC(=O)NC6=O)CC5=O)CC4)cc3)CC(C)(C)C(F)(F)F)CCOC(C)(C)C2)cc1 (stereo partly drawn) [AX3, 3-[5-({4-[(4′-{[{2-[(4R)-4-(4-Methoxyphenyl)-2,2-dimethyltetrahydro-2H-pyran-4-yl]ethyl)(3,3,3-trifluoro-2,2-dimethylpropyl)amino]methyl}-2,3,4,5-tetrahydro[biphenyl]-4-yl)methyl]-3-oxopiperazin-1-yl}methyl)-3-methyl-2-oxo-2,3-dihydro-1H-benzimidazol-1-yl]piperidine-2,6-dione] | –
11 | 28 | 4.5 | COc1ccc([C@]2(CCN(Cc3ccc(C4=CC[C@H](C(=O)N5CCN(Cc6ccc7c(c6)n(C)c(=O)n7C6CCC(=O)NC6=O)CC5)CC4)c(F)c3)CC(C)(C)C(F)(F)F)CCOC(C)(C)C2)cc1 (stereo partly drawn) [BQ4, 3-{5-[(4-{[(4R)-2′-Fluoro-4′-{[{2-[(4R)-4-(4-methoxyphenyl)-2,2-dimethyltetrahydro-2H-pyran-4-yl]ethyl}(3,3,3-trifluoro-2,2-dimethylpropyl)amino]methyl}-2,3,4,5-tetrahydro[biphenyl]-4-yl]carbonyl}piperazin-1-yl)methyl]-3-methyl-2-oxo-2,3-dihydro-1H-benzimidazol-1-yl}piperidine-2,6-dione] | –

Row | SMILES | GI50 (NCI-H295R cells; Homo sapiens, NCI-H295R, 168 h) [nM] | DC50 (SF-1) [nM] | GI50 (NCI-H295R cells) [nM]
12 | COc1ccc([C@]2(CCN(Cc3ccc(C4=CC[C@H](C(=O)N5CCC(Nc6ccc7c8c6CCCn8c(=O)n7C6CCC(=O)NC6=O)CC5)CC4)c(F)c3)CC(C)(C)C(F)(F)F)CCOC(C)(C)C2)cc1 (single isomer, unassigned) [CG1, (3S) or (3R)-{7-[(1-{[(4R)-2′-Fluoro-4′-{[{2-[(4R)-4-(4-methoxyphenyl)-2,2-dimethyltetrahydro-2H-pyran-4-yl]ethyl}(3,3,3-trifluoro-2,2-dimethylpropyl)amino]methyl}-2,3,4,5-tetrahydro[biphenyl]-4-yl]carbonyl}piperidin-4-yl)amino]-2-oxo-5,6-dihydro-4H-imidazo[4,5,1-ij]quinolin-1(2H)-yl}piperidine-2,6-dione] | – | 1.8 | 18
